Values joined by “and” are separate entries in the source; they are usually repeats but may differ in a detail not shown here. Equal entries are not always repeated.
Columns and labels:
regenerate bone / callus = settings: Smith et al 2003; net bone accumulation due to increased retention of callus; cited from earlier work
[1] = ZA elution from porous tantalum implants in saline, assayed by UV spectrophotometry; assay type: physicochemical; settings: for percent of the ZA released: HA-coated implant dosed with 0.05 mg ZA
From the text: Assay of ZA Elution. Assays of ZA in solution were achieved using UV spectrophotometry. Bisphosphonates on their own lack a detectable chromophore, making them difficult to assay by simple conventional analytical methods. However, the metal chelating properties of bisphosphonates are well known. When bisphosphonates complex with certain metal ions, a chromophore with suitable. UV activity for spectrophotometric analysis is created (Ostovic D, Stelmach C, Hulshizer B. Pharmaceutical Research. 10:470-472, 1993). The method for assaying ZA in aqueous-based solutions is based on the formation of a ZA complex with iron (III) ions (Kuljanin J, Jankovic I, Nedeljkovic J, Prstojevic D, Marinkovic V. Journal of Pharmaceutical and Biomedical Analysis. 28:1215-1220, 2002). Of the three components in the prescription drug Zometa™ (ZA, mannitol, and sodium citrate), only ZA forms a complex with iron (III) ions. A standard solution of iron (III) chloride in perchloric acid is added to known concentrations of Zometa™ and the absorbance is measured at 290 nm to create a calibration curve. A highly acidic medium is needed to prevent the hydrolysis of the iron (III) ions. Aliquots of the soak solution from the Zometa™-coated implants can be analyzed by adding the standard iron (III) chloride solution to the soak solution and measuring the absorbance at 290 nm. By measuring the absorbance, the concentration of the sample can be calculated and thus the mass of the drug released from the implant for a given time period can be determined.
Four porous tantalum implants with and without HA coating were deposited with 0.05 mg of ZA as described. For each implant group, elution characteristics were ascertained by immersing each implant in a test tube containing 5 ml of 0.9% saline at […]. At mutiple test intervals (1 min, 3 min, 5 min, 10 min, 15 min, 30 min, 1 hr, 6 hrs, 12 hrs, 1 day, 3 days, 7 days, 14 days, 21 days, 42 days, 84 days, and 98 days), the implant was removed from the test tube, the saline was thoroughly mixed, and aliquots were removed for ZA assays using UV spectrophotometry. After each time interval for each implant, the implant was placed in a test tube with fresh replacement of 5 ml of saline. This elution model avoided build up of boundary layers and more closely resembled a dynamic system. The 84-day assay time corresponded to the 12 week length of the in vivo implant studies. Assays ceased once the total amount of ZA was released.

distraction osteogenesis = settings: cited from earlier work
[2] = system: human (MG-63) osteoblastic cells; settings: Peter et al 2004; cited from earlier work
[3] = system: murine (MC3T3) osteoblastic cells; settings: Peter et al 2004; cited from earlier work
[4] = system: canine ulnar intramedullary implant model; assay: Canine ulnar intramedullary implant model, single intravenous dose of ZA, porous tantalum rods implanted for 6 weeks; assay type: in vivo
Description: The hypothesis that bisphosphonates have a positive effect on net bone growth, particularly into porous implants, was first confirmed by conducting a canine ulnar intramedullary implant model in which porous tantalum rods were implanted for 6 weeks. (Bobyn J D, Tanzer M, Harvey EJ, Krygier JJ, Little DG. J Bone Joint Surg (Br), 2005) Immediately after surgery, seven test animals with 14 ulnar implants were administered a single intravenous dose of 0.1 mg/kg ZA (Novartis Pharma A G, Basel, Switzerland). Because of the systemic exposure of test animals to ZA it was necessary to utilize external control data from a prior experiment (Tanzer M, Kantor S, Bobyn J D. J Arthrop 19:195-199, 2002) for comparisons of bone ingrowth. The mean extent of bone ingrowth was 6.6% for the control implants and 12.2% for the ZA-treated implants, a relative difference of 85% that was statistically significant.

[5] = system: canine ulnar intramedullary implant model; assay: Canine ulnar intramedullary implant model, HA coated porous tantalum implants dosed with ZA (local delivery), 12 weeks, quantitative histology; assay type: in vivo, dog
From the text: In Vivo Studies. The previously described canine ulnar intramedullary implant model was utilized (study approved by institutional review board) (Bobyn J D, Tanzer M, Harvey EJ, Krygier JJ, Little DG. J Bone Joint Surg (Br), In press, 2005). The surgical procedure involved anesthetizing the dog with a general anesthesia and under sterile conditions exposing the proximal ulna. A two-centimeter incision was made over the olecranon process and the triceps tendon was split by sharp dissection down to bone. Under fluoroscopic guidance, a 5.0 mm drill was oriented along the long axis of the ulna and in line with the intramedullary canal. A 5.5 cm long hole was drilled under fluoroscopy to ensure the proper orientation of the drill hole and to prevent cortical penetration. The porous implant was then tapped down the intramedullary canal of the ulna with a punch and mallet. The implant was slightly countersunk to avoid postoperative irritation of the overlying triceps tendon. The wound was irrigated and closed in a standard fashion. The procedure was repeated on the contralateral side. Positioning of the implants inevitably varied somewhat in terms of depth of insertion within the canal and spatial orientation within the canal. […] Each dog received either two control HA coated implants without ZA or two HA coated implants dosed with 0.05 mg ZA. Five control dogs and four with ZA-dosed implants were studied at 12 weeks. This protocol was utilized instead of one with a control and a ZA-dosed implant in each animal because it avoided the possibility of systemic absorption of ZA from one side and influence of a control implant on the other side.
Histological examination. After sacrifice, the ulnae were harvested, stripped of soft tissue, radiographed and processed for undecalcified hard-section histology (FIG. 6). This involved dehydration in ascending solutions of ethanol, defatting in ether and acetone, and embedding in methylmethacrylate. Each implant was cut transversely into 6 or 7 sections at 7-8 mm intervals. The sections were radiographed and polished, sputter coated with gold-palladium, and imaged with backscattered scanning electron microscopy. For each section, computerized image analysis based on grey level discrimination was used to identify bone and implant and to generate quantitative information on the extent of bone ingrowth, defined as the percentage of the available porosity that was filled with new bone. Also tabulated in each section was the number and size of the individual islands of bone within the implant pores. In sections cut through the ulnar diaphysis, where delineation of the endosteal cortex was clearly evident, the total area of peri-implant bone contained within the intramedullary canal was also tabulated. In these calculations the implant area (and bone within) was not included. For each section, the peri-implant bone was expressed as a percentage of the total peri-implant area within the intramedullary canal (not including the implant).
Statistical analysis. The quantitative histological data were statistically analyzed using multiple two-level hierarchical models. At the first level of the model, the set of results from the limbs of each dog was assumed to follow a normal distribution with dog-specific means and a global variance parameter. At the second level of the model, the means from each dog in each group (control, ZA-dosed) from the first level followed a second normal distribution, with the mean representing the overall mean for the treatment or control groups and the variance representing the variability within the group. A similar statistical model was also run where the results for each dog were allowed to vary with the distance (section level) along the ulna. […] The mean values and differences between means for control and ZA-dosed implants were estimated with 95% confidence intervals (CI).

[6] = system: canine ulnar intramedullary implant model; assay: as above; assay type: in vivo, dog; settings: total ZA doses of 0.2 mg and 0.4 mg, relative to 0.05 mg
bone resorption = settings: cited from earlier work; for potency at inhibiting bone resorption relative to second generation bisphosphonates (in words): third generation bisphosphonates which contain a tertiary nitrogen
[7] = system: soft tissue formation at implant site; settings: single application via a sponge to an implant site, rat; cited from earlier work
alveolar bone resorption = settings: local application following periodontal surgery in rats; cited from earlier work
[8] = system: knee prostheses migration; settings: early postoperative oral regimen, radiostereometry; cited from earlier work
[9] = individual ZA dogs 1-4, 0.05 mg ZA, 12 weeks

Compound: O=P(O)(O)C(O)(Cn1ccnc1)P(=O)(O)O [ZA, zoledronic acid]
- bone formation rate (regenerate bone / callus): reduced
- percent of the ZA released ([1]; 0.9% saline, after soaking for 6 weeks): ~95%
- percent of the ZA released ([1]; 0.9% saline, within 1 hour): about 65%
- release of zoledronic acid in saline (in words, FIG. 7) ([1]; implants without HA coating compared to those with HA coating, 0.05 mg): rapid and complete release
- time within which all of the ZA was released ([1]; non-HA coated porous tantalum implant dosed with 0.05 mg ZA, 0.9% saline): ≤ 1 h
- effect on osteopenia and regenerate bone (distraction osteogenesis; one or two doses of ZA): abolished osteopenia and increased regenerate volume, mineralization and strength
- concentration below which ZA can be considered safe for cellular activity [2]: below 10 μM
- concentration below which ZA can be considered safe for cellular activity [3]: below 10 μM
- average bone island size larger in the ZA-treated group ([4]; 0.1 mg/kg ZA intravenous): 69%
- relative difference in bone ingrowth, ZA-treated vs external control implants ([4]; 0.1 mg/kg ZA intravenous, statistically significant): 85%
- mean extent of bone ingrowth ([4]; single intravenous dose of 0.1 mg/kg ZA, 14 ulnar implants, own earlier published study): 12.2%
- more net bone growth into ZA-dosed implants compared with controls, relative ([5]; 0.05 mg ZA, 12 weeks): 58%
- peri-implant bone around ZA-dosed implants relative to controls ([5]; 0.05 mg ZA, 12 weeks): 2.3 times
- peri-implant bone on contact radiographs, ZA-dosed vs control implants (in words) ([5]; 0.05 mg ZA, 12 weeks): almost always more dense and/or abundant
- relative difference in the size of the bone islands, ZA-dosed vs control ([5]; 0.05 mg ZA, 12 weeks): 71%
- Bone Island Size, overall Mean (95% CI) ([5]; 0.05 mg ZA, 12 weeks, 54 sections, 8 implants): 0.023 (0.016 to 0.031) mm^2
- bone islands larger in the ZA-dosed implants than in controls, difference ([5]; 0.05 mg ZA, 12 weeks, 95% CI 0.001 to 0.017): 0.009 mm^2
- difference of the means of peri-implant bone filling, ZA-dosed vs control ([5]; 0.05 mg ZA, 12 weeks, 95% CI 3.3 to 33.7): 18.4%
- difference in mean extent of bone ingrowth, ZA-dosed vs control ([5]; 0.05 mg ZA, 12 weeks, 95% CI 3.5 to 11.1): 7.3%
- histologic evidence of cellular toxicity ([5]; 0.05 mg dose): without any histologic evidence of cellular toxicity
- Peri-implant bone relative to intramedullary canal size, overall Mean (95% CI) ([5]; HA coated implants dosed with 0.05 mg ZA, 12 weeks, 24 diaphyseal sections, 8 implants): 32.2 (21.7 to 43.0) %
- Mean extent of bone ingrowth, overall Mean (95% CI) ([5]; HA coated implants dosed with 0.05 mg ZA, 12 weeks, 54 sections, 8 implants): 19.8 (16.9 to 22.6) %
- # Bone Islands, by dog [5, 9]: 109 and 155 and 206 and 131
- Bone Island Size, by dog [5, 9]: 0.033 mm^2 and 0.016 mm^2 (2×) and 0.028 mm^2
- Mean extent of bone ingrowth, by dog ([5]; individual ZA dogs 1-4, HA coated implants dosed with 0.05 mg ZA, 12 weeks): 16.0% and 20.3% (2×) and 22.6%
- Peri-implant bone relative to intramedullary canal size, by dog ([5]; individual ZA dogs 1-4, HA coated implants dosed with 0.05 mg ZA, 12 weeks, diaphyseal sections): 19.8% and 38.5% and 30.4% and 40.0%
- bone formation on increasing the dosage of ZA ([5]; total ZA doses of 0.2 mg and 0.4 mg, relative to 0.05 mg): more bone formation around and within the implant
- complications or systemic illness related to the ZA administration ([5]; two HA coated implants dosed with 0.05 mg ZA per dog, 12 weeks): No dogs had any complications or systemic illness
- kind of the additional bone formed at higher doses [6]: woven bone
- potency relative to alendronate (bone resorption; Green 2001, Li and Davis 2003): 250 times
- potency relative to pamidronate (bone resorption; Green 2001, Li and Davis 2003): 100 times
- potency at inhibiting bone resorption relative to second generation bisphosphonates (in words) (bone resorption): even more potent

Compound: CCCCCN(C)CCC(O)(P(=O)(O)O)P(=O)(O)O [ibandronate]
- potency at inhibiting bone resorption relative to second generation bisphosphonates (in words) (bone resorption): even more potent

Compound: NCCC(O)(P(=O)(O)O)P(=O)(O)O [pamidronate]
- effect on disuse osteopenia and regenerate bone (distraction osteogenesis; single postoperative intravenous dose of pamidronate (3 mg/kg)): decreased the disuse osteopenia normally associated with lengthening and increased the amount and density of the regenerate bone

Compound: NCCCC(O)(P(=O)(O)O)P(=O)(O)O [alendronate]
- effect on soft tissue forming from resorptive remodeling due to repetitive implant motion [7]: reduces the amount of soft tissue
- effect on alveolar bone resorption (alveolar bone resorption): reduce alveolar bone resorption

Compound: O=P(O)(O)C(O)(Cc1cccnc1)P(=O)(O)O [risendronate]
- potency at inhibiting bone resorption relative to second generation bisphosphonates (in words) (bone resorption): even more potent

Compound: O=P(O)(O)C(Cl)(Cl)P(=O)(O)O [clodronate]
- effect on migration of knee prostheses [8]: reduced migration of knee prostheses

Source: patent publication US8309536B2, “Implant improving local bone formation” (priority 2005, dated 2012)
